According to patent US10450317B2, “Notch pathway signaling inhibitor compounds” (Eli Lilly and Company, priority 2015, dated 2019):

Experiments:
hAtoh1 = test: Induction of hAtoh1 expression in human tumor cell line LS174T (qPCR); assay type: cell-based; settings: LS174T cells, 72 hours, read-out: IC50 (relative expression of hAtoh1)
Procedure: To evaluate potency of Compounds 1, Isomer 2 and 2, Isomer 2 in their ability to induce hAtoh1 expression, a human tumor cell line is utilized. Endogenous Notch signaling regulation for this cell line is similar to that in the inner ear. Generally, this assay is carried out following principles in Kazanjian et al., Gastroenterology, 2010, 139(3): 918-928 and Supplementary Materials and Methods.
Generally, standard cell culture techniques are used. Low passage human colorectal adenocarcinoma cell line LS174T (ATCC CL-188) maintained in Growth Medium (MEM 10% FBS) is plated 10,000 cells in 100 μl Assay Medium (MEM 1% FBS) per well into 96-well tissue culture treated plates. […]
To quantify the expression of hair cell markers from the […], qPCR probes to detect hAtoh1 or TBP expression in a single two-color multiplex reaction is carried out. […] Relative gene expression between treatment groups is analyzed using the ΔΔCT method and replicate measurements are averaged.
Four separate assays are carried out to obtain IC50 values for each test compound. The IC50 value is determined by fitting concentration response data to “log(antagonist) vs. response (three parameter)” model using GraphPad Prism® software for 12 doses across a concentration range of 4.0E-11 to 1.0E-6 M with 108 total points analyzed for each compound.

Atoh1 = test: Hair cell marker induction in whole otic capsule culture (RT-PCR); assay type: cell-based, mice; settings: otic capsule explants, 48 hours in culture, vs vehicle-only control, n of 12-17
From the text: The otic capsule (otic capsule explant), comprised of the cochlear bony labrinth and vestibular systems, is dissected from 1 to 4 day-old postnatal mice (transgenic strain: Atoh 1-driven nGFP; Lumpkin E A, et al., Gene Expr. Patterns, 2003, 3(4): 389-95) of both sexes generally according to the method described in Parker et al., Journal of Visualized Experiments, 2010, (36), e1685. The entire otic capsule is isolated from the parietal bone and maintained ex-vivo in a roller tube culture system for up to 3 days in medium containing DMEM, high glucose, 5% FBS, 5% horse serum, 1 μg/ml ampicillin.
The otic capsule explant is used to evaluate test compound, in various delivery vehicles, penetrance into the inner ear. Tests are carried out with compositions of Compound 1, Isomer 2, (7.2 mM) in various delivery vehicles. […]
The composition is allowed to remain for 1-2 hours then washed away with culture medium. […] The cochlea is broken open and the entire organ of Corti is then dissected out and prepared for quantitative RT-PCR to measure Atoh1 hair cell marker expression levels (as described in organ of Corti explant assay, above). […] Up-regulation of Atoh1 by Compound 1, Isomer 2, in all tested compositions (2-3 fold, n of 12-17) is measured in comparison to vehicle-only control-treated otic capsule explants after 48 hours in culture.

Row | SMILES | IC50 (hAtoh1) [nM] | Up-regulation of Atoh1 in all tested compositions (Atoh1)
1 | COc1ccc2c(c1)N1CCC(C)(C)C1=CC(=O)C2NC(=O)[C@H](C)NC(=O)CCC(F)(F)F (single isomer, unassigned) [Compound 1, Isomer 2] | 16.6 | 2-3 fold
2 | C[C@H](NC(=O)CCC(F)(F)F)C(=O)NC1C(=O)C=C2N(CCC2(C)C)c2ncccc21 (single isomer, unassigned) [Compound 2, Isomer 2] | 54.3 | –
